Measurements as given in paper PMC9063446, “Biochemical and in silico identification of the active site and the catalytic mechanism of the circadian deadenylase HESPERIN” (FEBS Open Bio, 2022).
Blank lines part the entries; values can stand above or below the molecule they belong to.

Key:
AtHESPERIN (Hesperin) = biological target: T1, AtHESPERIN (Hesperin) (Arabidopsis thaliana, UniProt A8MS41); test: colorimetric methylene blue poly(A) degradation assay, modified Hanes-Woolf plot; type: biochemical; conditions: substrate poly(A); Buffer R with 2 mM MgCl2, 0.1 M NaCl, pH 6.5, 25 °C; competitive, reaction product
T1 construct: gene CCR4-4; HESPERIN cDNA in pATHRA (pET-15b derived), E. coli BL21-GOLD(DE3); N-terminal 6xHis tag cut by HRV 3C protease; SEC; oligomer, mainly trimer (~150 kDa)
T1 sequence (A8MS41 1-417): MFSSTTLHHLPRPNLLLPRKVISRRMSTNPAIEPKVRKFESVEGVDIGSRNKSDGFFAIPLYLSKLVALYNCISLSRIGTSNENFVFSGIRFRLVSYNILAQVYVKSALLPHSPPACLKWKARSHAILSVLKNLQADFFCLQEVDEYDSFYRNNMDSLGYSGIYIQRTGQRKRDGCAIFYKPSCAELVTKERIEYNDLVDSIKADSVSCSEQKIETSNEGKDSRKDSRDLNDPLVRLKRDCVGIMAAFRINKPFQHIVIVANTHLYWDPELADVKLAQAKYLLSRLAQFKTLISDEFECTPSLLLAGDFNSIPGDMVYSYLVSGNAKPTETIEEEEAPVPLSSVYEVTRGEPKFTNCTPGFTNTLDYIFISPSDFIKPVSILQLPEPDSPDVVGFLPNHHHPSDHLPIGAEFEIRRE

[1] = biological target: the molecule itself; test: native gel or EMSA; 7% PAGE under nondenaturing conditions for acidic proteins; 16 ug AtHESPERIN incubated with urea, up to 4 M; BSA and urease as mass standards

- Ki (AtHESPERIN (Hesperin)): 1800 ± 200 nM
Molecule: Nc1ncnc2c1ncn2[C@@H]1O[C@H](COP(=O)(O)O)[C@@H](O)[C@H]1O [AMP]

B1: AtHESPERIN (enzyme, Arabidopsis thaliana, UniProt A8MS41 1-417, looked up)
chain: T1 sequence (A8MS41 1-417)
notes: AtHESPERIN (Hesperin), circadian EEP deadenylase of Arabidopsis thaliana, UniProtKB A8MS41; cDNA cloned in pATHRA behind 6x His tag and HRV 3C site; The His tag was removed with HRV 3C protease (site LEVLFQ/GP), so residues of the site may be left at the N-terminus; It calls the oligomer mainly trimeric; also called native AtHESPERIN; wild-type AtHESPERIN; source: E. coli BL21-GOLD (DE3), …
- stoichiometry N [1]: 3
